# Assay results taken from BigSolDB 2.1.
structure (smiles),measurement,setting,value
Nc1cccnn1,solubility (mole fraction),"in acetone, 288.25 K",0.0068
same,solubility (mole fraction),"in acetone, 293.15 K",0.00801
same,solubility (mole fraction),"in acetone, 298.35 K",0.00907
same,solubility (mole fraction),"in acetone, 303.05 K",0.0102
same,solubility (mole fraction),"in acetone, 308.35 K",0.012
same,solubility (mole fraction),"in acetone, 313.25 K",0.0133
same,solubility (mole fraction),"in acetone, 317.85 K",0.0148
same,solubility (mole fraction),"in acetone, 323.35 K",0.0169
same,solubility (mole fraction),"in acetone, 328.05 K",0.0187
same,solubility (mole fraction),"in aniline, 288.05 K",0.0231
same,solubility (mole fraction),"in aniline, 293.25 K",0.0289
same,solubility (mole fraction),"in aniline, 298.35 K",0.0347
same,solubility (mole fraction),"in aniline, 302.95 K",0.0419
same,solubility (mole fraction),"in aniline, 308.45 K",0.0487
same,solubility (mole fraction),"in aniline, 313.15 K",0.0559
same,solubility (mole fraction),"in aniline, 318.15 K",0.0623
same,solubility (mole fraction),"in aniline, 323.45 K",0.0693
same,solubility (mole fraction),"in aniline, 328.15 K",0.076
same,solubility (mole fraction),"in aniline, 333.35 K",0.0825
same,solubility (mole fraction),"in ethanol, 288.35 K",0.0193
same,solubility (mole fraction),"in ethanol, 294.05 K",0.0213
same,solubility (mole fraction),"in ethanol, 298.75 K",0.0237
same,solubility (mole fraction),"in ethanol, 303.15 K",0.0266
same,solubility (mole fraction),"in ethanol, 308.25 K",0.0306
same,solubility (mole fraction),"in ethanol, 313.35 K",0.0349
same,solubility (mole fraction),"in ethanol, 318.35 K",0.0409
same,solubility (mole fraction),"in ethanol, 323.35 K",0.0492
same,solubility (mole fraction),"in ethanol, 328.35 K",0.0602
same,solubility (mole fraction),"in ethanol, 333.15 K",0.0713
same,solubility (mole fraction),"in ethyl acetate, 288.45 K",0.00228
same,solubility (mole fraction),"in ethyl acetate, 293.15 K",0.00275
same,solubility (mole fraction),"in ethyl acetate, 298.65 K",0.00324
same,solubility (mole fraction),"in ethyl acetate, 302.75 K",0.00383
same,solubility (mole fraction),"in ethyl acetate, 307.15 K",0.00434
same,solubility (mole fraction),"in ethyl acetate, 312.95 K",0.00522
same,solubility (mole fraction),"in ethyl acetate, 318.65 K",0.00588
same,solubility (mole fraction),"in ethyl acetate, 322.65 K",0.00665
same,solubility (mole fraction),"in ethyl acetate, 328.25 K",0.00738
same,solubility (mole fraction),"in ethyl acetate, 332.35 K",0.00813
same,solubility (mole fraction),"in isopropanol, 288.15 K",0.0122
same,solubility (mole fraction),"in isopropanol, 298.15 K",0.0172
same,solubility (mole fraction),"in isopropanol, 303.55 K",0.0203
same,solubility (mole fraction),"in isopropanol, 308.45 K",0.0233
same,solubility (mole fraction),"in isopropanol, 312.85 K",0.0277
same,solubility (mole fraction),"in isopropanol, 317.75 K",0.0315
same,solubility (mole fraction),"in isopropanol, 323.25 K",0.0373
same,solubility (mole fraction),"in isopropanol, 328.05 K",0.0412
same,solubility (mole fraction),"in isopropanol, 332.95 K",0.0465
same,solubility (mole fraction),"in methanol, 288.15 K",0.0356
same,solubility (mole fraction),"in methanol, 293.05 K",0.0398
same,solubility (mole fraction),"in methanol, 298.15 K",0.0455
same,solubility (mole fraction),"in methanol, 303.25 K",0.052
same,solubility (mole fraction),"in methanol, 308.15 K",0.0596
same,solubility (mole fraction),"in methanol, 313.15 K",0.0675
same,solubility (mole fraction),"in methanol, 318.25 K",0.076
same,solubility (mole fraction),"in methanol, 323.55 K",0.0865
same,solubility (mole fraction),"in methanol, 328.15 K",0.0981
same,solubility (mole fraction),"in n-butanol, 289.35 K",0.0105
same,solubility (mole fraction),"in n-butanol, 293.35 K",0.0126
same,solubility (mole fraction),"in n-butanol, 298.05 K",0.017
same,solubility (mole fraction),"in n-butanol, 303.15 K",0.0218
same,solubility (mole fraction),"in n-butanol, 308.15 K",0.0267
same,solubility (mole fraction),"in n-butanol, 313.15 K",0.0324
same,solubility (mole fraction),"in n-butanol, 318.05 K",0.0371
same,solubility (mole fraction),"in n-butanol, 322.65 K",0.042
same,solubility (mole fraction),"in n-butanol, 327.95 K",0.0469
same,solubility (mole fraction),"in n-butanol, 332.95 K",0.0519
same,solubility (mole fraction),"in n-propanol, 288.45 K",0.0161
same,solubility (mole fraction),"in n-propanol, 293.05 K",0.0185
same,solubility (mole fraction),"in n-propanol, 298.35 K",0.022
same,solubility (mole fraction),"in n-propanol, 302.85 K",0.0255
same,solubility (mole fraction),"in n-propanol, 308.15 K",0.0293
same,solubility (mole fraction),"in n-propanol, 313.05 K",0.0351
same,solubility (mole fraction),"in n-propanol, 318.35 K",0.0401
same,solubility (mole fraction),"in n-propanol, 322.95 K",0.0461
same,solubility (mole fraction),"in n-propanol, 327.95 K",0.0519
same,solubility (mole fraction),"in n-propanol, 333.15 K",0.0602
